Results reported in patent publication US8247211B2, “Glycopeptide antibiotics” (American Cyanamid Company, priority 2001, dated 2012).
≈ marks a conversion by molar mass, not a printed value.

How the values were obtained:
Experiment in all cases: In vitro antibacterial evaluation: minimum inhibitory concentration (MIC), broth dilution method
Format in all cases: cell-based
Streptococcus sp. = details: 18 hours at 35° C.
Method in brief: (§1)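 Values are minimum inhibitory concentrations, meaning the smallest antibiotic concentration that stops growth of the organism. They come from broth dilution in Muller-Hinton II […] per NCCLS guidance (M7-A2), using 5×10^5 CFU/mL and concentrations from 64 to 0.06 μg/mL.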

Enterococcus sp. = details: 18 hours at 35° C.
Method in brief: as §1

Escherichia coli = details: 18 hours at 35° C.
Method in brief: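 MIC read as lowest drug level preventing visible growth. Organisms at 5×10^5 CFU/mL were exposed to a 64-0.06 μg/mL dilution series in Muller-Hinton II […] following NCCLS broth dilution standard M7-A2.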

Staphylococcus sp. = system: Staphylococcus sp.
Method in brief: as §1

[1] = broth dilution, inoculum 5×10^5 CFU/mL

- MIC Streptococcus agalactiae (GC 4564) (Streptococcus sp.; Streptococcus agalactiae (GC 4564)): <0.12 mg/L
- MIC Streptococcus pneumoniae (ATCC 6301) (Streptococcus sp.; Streptococcus pneumoniae (ATCC 6301)): <0.12 mg/L
- MIC Streptococcus pneumoniae (GC 1894) (Streptococcus sp.; Streptococcus pneumoniae (GC 1894)): <0.12 mg/L
- MIC Streptococcus pneumoniae (GC 4565) (Streptococcus sp.; Streptococcus pneumoniae (GC 4565)): <0.12 mg/L
- MIC Streptococcus pyogenes (GC 4563) (Streptococcus sp.; Streptococcus pyogenes (GC 4563)): <0.12 mg/L
- MIC Streptococcus agalactiae (GC 4564) (Streptococcus sp.; [1]): <0.12 mg/L
- MIC Streptococcus pneumoniae (ATCC 6301) (Streptococcus sp.; [1]): <0.12 mg/L
- MIC Streptococcus pneumoniae (GC 1894) (Streptococcus sp.; [1]): <0.12 mg/L
- MIC Streptococcus pneumoniae (GC 4565) (Streptococcus sp.; [1]): <0.12 mg/L
- MIC Streptococcus pyogenes (GC 4563) (Streptococcus sp.; [1]): <0.12 mg/L
- MIC Enterococcus avium (GC 4558) (Enterococcus sp.; Enterococcus avium (GC 4558)): 1 mg/L (≈ 0.72 µM)
- MIC Enterococcus faecalis (ATCC 29212) (Enterococcus sp.; Enterococcus faecalis (ATCC 29212)): 1 mg/L (≈ 0.72 µM)
- MIC Enterococcus faecalis (GC 2242) (Enterococcus sp.; Enterococcus faecalis (GC 2242)): 1 mg/L (≈ 0.72 µM)
- MIC Enterococcus faecalis (GC 2691) (Enterococcus sp.; Enterococcus faecalis (GC 2691)): 1 mg/L (≈ 0.72 µM)
- MIC Enterococcus faecalis (GC 3059) (Enterococcus sp.; Enterococcus faecalis (GC 3059)): 1 mg/L (≈ 0.72 µM)
- MIC Enterococcus faecalis (GC 4552) (Enterococcus sp.; Enterococcus faecalis (GC 4552)): 1 mg/L (≈ 0.72 µM)
- MIC Enterococcus faecalis (GC 4553) (Enterococcus sp.; Enterococcus faecalis (GC 4553)): 1 mg/L (≈ 0.72 µM)
- MIC Enterococcus faecalis (GC 4554) (Enterococcus sp.; Enterococcus faecalis (GC 4554)): 1 mg/L (≈ 0.72 µM)
- MIC Enterococcus faecalis (GC 6189) (Enterococcus sp.; Enterococcus faecalis (GC 6189)): 1 mg/L (≈ 0.72 µM)
- MIC Enterococcus faecium (GC 2243) (Enterococcus sp.; Enterococcus faecium (GC 2243)): 1 mg/L (≈ 0.72 µM)
- MIC Enterococcus faecium (GC 4556) (Enterococcus sp.; Enterococcus faecium (GC 4556)): 1 mg/L (≈ 0.72 µM)
- MIC Enterococcus faecium (GC 4557) (Enterococcus sp.; Enterococcus faecium (GC 4557)): 0.5 mg/L (≈ 0.36 µM)
- MIC Enterococcus avium (GC 4558) (Enterococcus sp.; [1]): 1 mg/L (≈ 0.72 µM)
- MIC Enterococcus faecalis (ATCC 29212) (Enterococcus sp.; [1]): 1 mg/L (≈ 0.72 µM)
- MIC Enterococcus faecalis (GC 2242) (Enterococcus sp.; [1]): 1 mg/L (≈ 0.72 µM)
- MIC Enterococcus faecalis (GC 2691) (Enterococcus sp.; [1]): 1 mg/L (≈ 0.72 µM)
- MIC Enterococcus faecalis (GC 3059) (Enterococcus sp.; [1]): 1 mg/L (≈ 0.72 µM)
- MIC Enterococcus faecalis (GC 4552) (Enterococcus sp.; [1]): 1 mg/L (≈ 0.72 µM)
- MIC Enterococcus faecalis (GC 4553) (Enterococcus sp.; [1]): 1 mg/L (≈ 0.72 µM)
- MIC Enterococcus faecalis (GC 4554) (Enterococcus sp.; [1]): 1 mg/L (≈ 0.72 µM)
- MIC Enterococcus faecalis (GC 6189) (Enterococcus sp.; [1]): 1 mg/L (≈ 0.72 µM)
- MIC Enterococcus faecium (GC 2243) (Enterococcus sp.; [1]): 1 mg/L (≈ 0.72 µM)
- MIC Enterococcus faecium (GC 4556) (Enterococcus sp.; [1]): 1 mg/L (≈ 0.72 µM)
- MIC Enterococcus faecium (GC 4557) (Enterococcus sp.; [1]): 0.5 mg/L (≈ 0.36 µM)
- MIC Escherichia coli (ATCC 25922) (Escherichia coli; Escherichia coli (ATCC 25922)): 16 mg/L (≈ 11.5 µM)
- MIC Escherichia coli (GC 4559) (Escherichia coli; Escherichia coli (GC 4559)): 16 mg/L (≈ 11.5 µM)
- MIC Escherichia coli (GC 4560) (Escherichia coli; Escherichia coli (GC 4560)): 0.25 mg/L (≈ 0.18 µM)
- MIC Staphylococcus aureus (ATCC 29213) (Staphylococcus sp.; strain ATCC 29213): 0.25 mg/L (≈ 0.18 µM)
- MIC Staphylococcus aureus (GC 1131) (Staphylococcus sp.; strain GC 1131): 0.25 mg/L (≈ 0.18 µM)
- MIC Staphylococcus aureus (GC 3051) (Staphylococcus sp.; strain GC 3051): 0.5 mg/L (≈ 0.36 µM)
- MIC Staphylococcus aureus (GC 3053) (Staphylococcus sp.; strain GC 3053): 0.5 mg/L (≈ 0.36 µM)
- MIC Staphylococcus aureus (GC 4541) (Staphylococcus sp.; strain GC 4541): 0.5 mg/L (≈ 0.36 µM)
- MIC Staphylococcus aureus (GC 4542) (Staphylococcus sp.; strain GC 4542): 0.25 mg/L (≈ 0.18 µM)
- MIC Staphylococcus aureus-SMITH (GC 4543) (Staphylococcus sp.; strain GC 4543): 0.5 mg/L (≈ 0.36 µM)
- MIC Staphylococcus aureus (GC 4544) (Staphylococcus sp.; strain GC 4544): 0.25 mg/L (≈ 0.18 µM)
- MIC Staphylococcus aureus (GC 4545) (Staphylococcus sp.; strain GC 4545): 0.25 mg/L (≈ 0.18 µM)
- MIC Coagulase Negative Staphylococcus (GC 4547) (Staphylococcus sp.; strain GC 4547): 0.25 mg/L (≈ 0.18 µM)
- MIC Coagulase Negative Staphylococcus (GC 4548) (Staphylococcus sp.; strain GC 4548): 0.25 mg/L (≈ 0.18 µM)
- MIC Coagulase Negative Staphylococcus (GC 4549) (Staphylococcus sp.; strain GC 4549): 0.25 mg/L (≈ 0.18 µM)
- MIC Coagulase Negative Staphylococcus (GC 4551) (Staphylococcus sp.; strain GC 4551): 0.25 mg/L (≈ 0.18 µM)
SMILES: CC(C1CCCCC1)C1NC(=O)CNC(=O)C(CO)NC(=O)C(C(O)C2CNC(=N)N2C2OC(CO)C(O)C(O)C2O)NC(=O)C(C(O)C2CNC(=N)N2)NC(=O)C(Cc2ccc(OC3OC(CO)C(OC4OC5COC(c6ccccc6)OC5C(O)C4O)C(O)C3O)cc2)NC1=O (stereo not drawn) [Example 201, Cyclo[3-cyclohexyl-2-aminobutanoyl-O-[4-O-[4,6-O-benzylidenehexonyranosyl]hexopyranosyl]tyrosyl-3-(2-iminoimidazolidin-4-yl)seryl-3-(3-hexopyranosyl-2-iminoimidazolidin-4-yl)serylserylglycyl]]
- MIC Staphylococcus haemolyticus (GC 4546) (Staphylococcus sp.; strain GC 4546): 0.25 mg/L (≈ 0.18 µM)
